Experimental data published in US12203070B2, “Gene knockout of NRF2 for treatment of cancer” (Christiana Care Gene Editing Institute , Inc., priority 2019, dated 2025).
“And” between values parts separate entries of the source, which are not always exact repeats. Equal entries are not always repeated. “Also recorded” adds a separate entry of the source.

Key:
NRF2 gene = experiment: TIDE indel analysis of bulk sorted eGFP+ A549 cells transfected with pX458 CRISPR/Cas9 constructs; type: cell-based, human; conditions: bulk sorted eGFP+ A549 population, pX458 plasmid
Experimental: A549 cells were transfected at a concentration of 5×10^5 cells/100 μl in 4 mm gap cuvette (BioExpress, Kaysville, UT, USA). NRF2 targeting pX458 constructs were separately electroporated (250 V. LV, 13 ms pulse length, 2 pulses, 1 s interval) into A549 cells using a Bio-Rad Gene Pulser XCell Electroporation System (Bio-Rad Laboratories, Hercules, CA, USA). Cells were then recovered in 6-well plates with complete growth media at 37° C. for 72 hours prior to sorting. […] Clones were expanded and transferred to larger plates as the individual clones reached confluence, with DNA isolation occurring when cells reached confluence in a six-well plate (1×10^6 cells/mL).
CRISPR/Cas9 targeted A549 clones were PCR amplified (forward 5′-[…] (SEQ ID NO: 5), reverse 5′-[…] (SEQ ID NO: 6)) using Amplitaq Gold Fast PCR Master Mix (Applied Biosystems, Foster City, CA). Briefly, template DNA, primers, water and master mix were combined and cycled: 95° C. for 10 minutes, (96° C. for 3 s, 60° C. for 3 s, 68° C. for 5 s)×35 cycles, and 72° C. for 10 s. The 402 bp products were purified (Qiagen, Hilden, Germany) and Sanger sequenced using the forward PCR primer. Clonal allelic analyses of individual A549 cell clones were analyzed by the software program, Tracking of Indels by DEcomposition (TIDE), to determine the individual sub-sequences within the multi-peaked breakdown product after CRISPR/Cas9 activity. […]

[1] = tested on: NRF2 knockout A549 (2-11) tumors; experiment: Xenograft mouse model, NRF2 knockout A549 (2-11) tumors; type: in vivo, athymic nude mice; conditions: for tumor growth: 16 days
Experimental: The animal trials presented herein were carried out at Washington Biotech Inc., Simpsonville Maryland, under animal use and care protocol (SOP 505, SOP 520, SOP 522, SOP 1610, SOP1650) approved by the animal care and use committee of Washington Biotechnology Inc. (AAALAC accredited Animal Welfare Assurance number A4192-01). The human xenograft model was established using methodology reported previously. […] et al., Biomed Res. Int. 2015, 1-17 (2015). Female athymic nude mice (Envigo, 5-6 weeks old) were used in this study. Approximately 5×10^6 cells (wild type A549 or homozygous knockout (clonal expansion 2-11)) suspended in PBS with 20% Matrigel were injected subcutaneously into right flank of each mouse. Tumor volume was measured three times a week with a digital caliper once palpable, and calculated using the formula, tumor size=ab^2/2, where 'a' is the larger and 'b' is the smaller of the two dimensions. When tumors grew up to a mean volume of around 100 mm^3, A549 tumor bearing mice or A549-2-11 tumor bearing mice were randomly divided into 7 groups (N=5 for each group) respectively and subject to dose/regimen-finding study. […] Tumor volume and body weight was closely monitored over time. After 16 days, the animals were sacrificed, with tumor removed, weighed and processed for molecular analysis. Mice were euthanized. The data were expressed as mean±SD. Student's t-test and one-way or two-way ANOVA was used to assess the significance of difference. […] A549 xenografts were resected on day 16, snap frozen in liquid nitrogen and stored in -80° C. until usage. All immunofluorescence staining was performed as previously described. Wang et al., Investig. Opthalmology Vis. Sci. 58, 3896 (2017). Briefly, tumors were embedded in Optimum Cutting Temperature (Tissue Tek, Torrance, CA, USA) and 16-μm-thick sections were obtained with a Leica CM3050 cryostat (Leica Microsystems, Buffalo Grove, IL, USA), and mounted on slides. Slides were fixed and incubated with blocking buffer for 1 hour at room temperature. […]

[2] = tested on: NRF2 knockout A549 cells (2-11); experiment: MTS cell proliferation assay after drug exposure, NRF2 knockout cells; type: cell-based, human; conditions: 2-11 knockout A549 cells, 72 hours; for chemosensitivity (MTS proliferation): increasing dosages
Experimental: (§1) Cell viability was evaluated using the CellTiter 96 Aqueous Non-Radioactive Cell Proliferation Assay (Promega, Madison, WI). A549 cell lines were plated at 2×10^3 cells per well and allowed to culture for 24 hours. The cell media was then aspirated, the cells washed with PBS, then exposed to the MTS reagent for 3 hours. After 3 hours of MTS bio-reduction by proliferating cells, the formazan product's absorbance was measured using a 450 nm filter on an Infinite 2000 PRO microplate reader (Tecan, Mannadorf, Switzerland). Cell viability after drug exposure was evaluated using the CellTiter 96 Aqueous Non-Radioactive Cell Proliferation Assay. A549 cell lines were plated at 2×10^3 cells per well and allowed to culture for 24 hours. The cells were then treated with cisplatin, carboplatin, or a combination of cisplatin and vinorelbine for three days. The cell media was then aspirated, the cells washed with PBS, then exposed to the MTS reagent for 3 hours. After 3 hours of MTS bio-reduction by proliferating cells, the formazan product's absorbance was measured using a 450 nm filter on an Infinite 2000 PRO microplate reader.

wild type A549 cells = experiment: MTS cell proliferation assay after drug exposure, wild type cells; type: cell-based, human
Experimental: as §1

5′-UCGAUGUGACCGGGAAUAUCAGG (listed as RNA, chemistry not fully specified) [gRNA1]
indels (TIDE), NRF2 disruption (NRF2 gene): significant amount of indels

5′-UGAUUUAGACGGUAUGCAACAGG (listed as RNA, chemistry not fully specified) [gRNA2]
indels (TIDE), NRF2 disruption (NRF2 gene): significant amount of indels

N.N.O=C([O-])C1(C(=O)[O-])CCC1.[Pt+2] [carboplatin]
tumor growth ([1]; 25 mg/kg carboplatin tail vein on day 0, 3, 6, 9): same reduced proliferation and growth trend described above is reproduced
chemosensitivity (MTS proliferation) ([2]; listed as Carboplatin): reflected what was observed in the experiments using cisplatin

N.N.[Cl][Pt][Cl] [cisplatin]
tumor growth ([1]; cisplatin 2 mg/kg tail vein on day 0, 3, 6, 9): proliferation of the implanted cells is arrested; also recorded: smallest tumors
Ki67 staining of xenograft tumors ([1]; cisplatin 2 mg/kg, tumors resected day 16, compared to saline): even lower levels of Ki67
concentration at and above which proliferation is lost [2]: ≥ 1 µM
chemosensitivity (MTS proliferation) [2]: increase in chemosensitivity in a dose-dependent fashion
concentration up to which a slight increase in cell proliferation is seen (wild type A549 cells; wild type A549, 72 hours): up to 3 μM
final concentration at which proliferation is adversely affected (wild type A549 cells; wild type A549, 72 hours): 5 µM and 10 µM
response of cell proliferation to drug (MTS) (wild type A549 cells; wild type A549, increasing dosages, 72 hours): resistant to high dosages of Cisplatin
